Patent US20240279278A1, “NMU RECEPTOR 2 AGONISTS” (Boehringer Ingelheim International GmbH, priority 2023, published 2024)
Starred links: 1 amine or outer side, 2 acyl side, 3 side chain; linkers in the order of their positions; H or OH if unused. Non-standard residues stand in square brackets, D forms with d. Residues, ends and D or L forms follow the SMILES beside them. *: point of attachment. Pipz(1-CH2CO,4-CH2CH2NH) = O=C(CN1CCN(CCN[*:1])CC1)[*:2]; C18 diacid = O=C(O)CCCCCCCCCCCCCCCCC(=O)*; γGlu = O=C(O)[C@H](CCC(=O)[*:2])N[*:1]; 4Pal = N[C@@H](Cc1ccncc1)C(=O)O; NMeL = CN[C@@H](CC(C)C)C(=O)O; NMeA = CN[C@@H](C)C(=O)O; Nle = CCCC[C@H](N)C(=O)O; Sar = CNCC(=O)O

Experiments:
Type in all cases: cell-based
[1] = molecular target: T1, human NMUR2 receptor (Homo sapiens, UniProt Q9GZQ4); assay: IP1 Gq HTRF assay, activation of human NMUR2 in human plasma; parameters: expressed in transfected cells; host or cells: CHO-K1; settings: CHO-K1 cells expressing human NMUR2, 100% human plasma; read-out: EC50 (hNMUR2) human plasma
Summary of the method: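 CHO-K1 cells stably expressing human NMUR2 exposed to peptide agonists (8-point dose-response) in 100% human plasma with 50 mM LiCl, 1% DMSO, for 1 h at 37° C. IP1 accumulation read by HTRF competition (665/620 nm ratio). EC50 from 4-parameter sigmoidal fit.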

[2] = molecular target: T2, human NMUR1 receptor (Homo sapiens, UniProt Q9HB89); assay: IP1 Gq HTRF assay, activation of human NMUR1 in buffer; settings: CHO-K1 cells expressing human NMUR1, stimulation buffer with 0.1% BSA; read-out: EC50 (hNMUR1) buffer
T2 construct: expressed in transfected cells; host or cells: CHO-K1
T2 sequence (Q9HB89 1-426): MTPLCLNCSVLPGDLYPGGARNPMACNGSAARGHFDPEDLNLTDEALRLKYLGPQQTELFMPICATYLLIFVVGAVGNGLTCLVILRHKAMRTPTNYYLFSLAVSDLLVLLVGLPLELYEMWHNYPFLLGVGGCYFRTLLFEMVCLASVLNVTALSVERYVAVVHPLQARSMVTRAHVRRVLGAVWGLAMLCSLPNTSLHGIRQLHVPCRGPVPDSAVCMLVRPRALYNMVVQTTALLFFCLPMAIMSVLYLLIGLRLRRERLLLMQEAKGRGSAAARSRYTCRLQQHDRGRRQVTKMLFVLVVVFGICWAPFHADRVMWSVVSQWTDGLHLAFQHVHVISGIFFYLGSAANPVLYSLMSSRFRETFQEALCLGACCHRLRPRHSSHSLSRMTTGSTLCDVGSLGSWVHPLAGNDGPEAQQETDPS
Summary of the method: (§1)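 CHO-K1 cells stably expressing human NMUR1 or NMUR2, seeded 24 h before assay, stimulated with peptide agonists (8-point dose-response, 1% DMSO final) in HEPES/HBSS buffer with 50 mM LiCl and 0.1% BSA, pH 7.4, 1 h at 37 °C. IP1 accumulation read by HTRF competition (665/620 nm); EC50 from 4-parameter sigmoidal fit.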

[3] = molecular target: T1, human NMUR2 receptor; assay: IP1 Gq HTRF assay, activation of human NMUR2 in buffer; parameters: expressed in transfected cells; host or cells: CHO-K1; settings: CHO-K1 cells expressing human NMUR2, stimulation buffer with 0.1% BSA; read-out: EC50 (hNMUR2) buffer
Summary of the method: as §1

T1 sequence (Q9GZQ4 whole entry): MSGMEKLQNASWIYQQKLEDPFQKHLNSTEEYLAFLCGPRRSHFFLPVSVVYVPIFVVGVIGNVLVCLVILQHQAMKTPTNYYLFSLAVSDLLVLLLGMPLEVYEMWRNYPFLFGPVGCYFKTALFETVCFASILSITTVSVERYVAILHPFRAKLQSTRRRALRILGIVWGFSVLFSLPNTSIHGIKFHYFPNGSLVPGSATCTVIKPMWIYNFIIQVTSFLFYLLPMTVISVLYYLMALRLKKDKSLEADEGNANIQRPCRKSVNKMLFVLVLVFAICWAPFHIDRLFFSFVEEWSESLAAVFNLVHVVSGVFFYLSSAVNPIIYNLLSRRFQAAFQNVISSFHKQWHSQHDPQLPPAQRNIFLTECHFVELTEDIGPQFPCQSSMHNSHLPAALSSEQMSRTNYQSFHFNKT

Compound | EC50 [1] [nM] | EC50 [2] [nM] | EC50 [3] [nM]
CCCC[C@H](NC(=O)[C@H](CC(C)C)N(C)C(=O)[C@H](Cc1ccccc1)NC(=O)[C@H](Cc1ccc(O)cc1)NC(=O)CN1CCN(CCNC(=O)CN(C)C(=O)CN(C)C(=O)CN(C)C(=O)CN(C)C(=O)CN(C)C(=O)CN(C)C(=O)CN(C)C(=O)CN(C)C(=O)CN(C)C(=O)CN(C)C(=O)CN(C)C(=O)CN(C)C(=O)CN(C)C(=O)CN(C)C(=O)CN(C)C(=O)CC[C@H](NC(=O)CC[C@H](NC(=O)CC[C@H](NC(=O)CCCCCCCCCCCCCCCCC(=O)O)C(=O)O)C(=O)O)C(=O)O)CC1)C(=O)N[C@@H](Cc1ccncc1)C(=O)N(C)[C@@H](C)C(=O)N[C@@H](CCCNC(=N)N)C(=O)NCC(N)=O [Compound 58, C18DA-gGlu3-Sar15-AEPipAc-Tyr-Phe-NMeLeu-Nle-4Pal-NMeAla-Arg-Gly-NH2] ({C18 diacid-γGlu-γGlu-γGlu}-[Sar][Sar][Sar][Sar][Sar][Sar][Sar][Sar][Sar][Sar][Sar][Sar][Sar][Sar][Sar][Pipz(1-CH2CO,4-CH2CH2NH)]YF[NMeL][Nle][4Pal][NMeA]RG-NH2) | 709 | > 1000 | 140
CCCC[C@H](NC(=O)[C@H](CC(C)C)N(C)C(=O)[C@H](Cc1ccccc1)NC(=O)[C@H](Cc1ccc(O)cc1)NC(=O)CN1CCN(CCNC(=O)CN(C)C(=O)CN(C)C(=O)CN(C)C(=O)CN(C)C(=O)CN(C)C(=O)CN(C)C(=O)CN(C)C(=O)CN(C)C(=O)CN(C)C(=O)CN(C)C(=O)CN(C)C(=O)CN(C)C(=O)CC[C@H](NC(=O)CC[C@H](NC(=O)CC[C@H](NC(=O)CCCCCCCCCCCCCCCCCCC(=O)O)C(=O)O)C(=O)O)C(=O)O)CC1)C(=O)N[C@@H](CCN)C(=O)N(C)[C@@H](C)C(=O)N[C@@H](CCCNC(=N)N)C(=O)NCC(N)=O [Compound 59, C20DA-gGlu3-Sar12-AEPipAc-Tyr-Phe-NMeLeu-Nle-Dbu-NMeAla-Arg-Gly-NH2] | 12.1 | > 1000 | 5
CCCC[C@H](NC(=O)[C@H](CC(C)C)N(C)C(=O)[C@H](Cc1ccccc1)NC(=O)[C@H](Cc1ccc(O)cc1)NC(=O)CN1CCN(CCNC(=O)CN(C)C(=O)CN(C)C(=O)CN(C)C(=O)CN(C)C(=O)CN(C)C(=O)CN(C)C(=O)CN(C)C(=O)CN(C)C(=O)CN(C)C(=O)CC[C@H](NC(=O)CC[C@H](NC(=O)CC[C@H](NC(=O)CCCCCCCCCCCCCCCCCCC(=O)O)C(=O)O)C(=O)O)C(=O)O)CC1)C(=O)N[C@@H](CCN)C(=O)N1CCC[C@H]1C(=O)N[C@@H](CCCNC(=N)N)C(=O)NCC(N)=O [Compound 60, C20DA-gGlu3-Sar9-AEPipAc-Tyr-Phe-NMeLeu-Nle-Dbu-Pro-Arg-Gly-NH2] (HELM PEPTIDE1{[O=C(O)CCCCCCCCCCCCCCCCCCC(=O)[*:2]].[gGlu].[gGlu].[gGlu].[Sar].[Sar].[Sar].[Sar].[Sar].[Sar].[Sar].[Sar].[Sar].[O=C(CN1CCN(CCN[*:1])CC1)[*:2]].Y.F.[meL].[Nle].[Dab].P.R.G.[am]}$$$$V2.0) | 13.9 | 540 | 4
CCCC[C@H](NC(=O)[C@H](CC(C)C)N(C)C(=O)[C@H](Cc1ccccc1)NC(=O)[C@H](Cc1ccc(O)cc1)NC(=O)CN1CCN(CCNC(=O)CN(C)C(=O)CN(C)C(=O)CN(C)C(=O)CN(C)C(=O)CN(C)C(=O)CN(C)C(=O)CN(C)C(=O)CN(C)C(=O)CN(C)C(=O)CC[C@H](NC(=O)CC[C@H](NC(=O)CC[C@H](NC(=O)CCCCCCCCCCCCCCCCCCC(=O)O)C(=O)O)C(=O)O)C(=O)O)CC1)C(=O)N[C@@H](CCN)C(=O)N(C)[C@@H](C)C(=O)N[C@@H](CCCNC(=N)N)C(=O)NCC(N)=O [Compound 61, C20DA-gGlu3-Sar9-AEPipAc-Tyr-Phe-NMeLeu-Nle-Dbu-NMeAla-Arg-Gly-NH2] (HELM PEPTIDE1{[O=C(O)CCCCCCCCCCCCCCCCCCC(=O)[*:2]].[gGlu].[gGlu].[gGlu].[Sar].[Sar].[Sar].[Sar].[Sar].[Sar].[Sar].[Sar].[Sar].[O=C(CN1CCN(CCN[*:1])CC1)[*:2]].Y.F.[meL].[Nle].[Dab].[meA].R.G.[am]}$$$$V2.0) | 14.1 | > 1000 | 4.6
CCCC[C@H](NC(=O)[C@H](CC(C)C)N(C)C(=O)[C@H](Cc1ccccc1)NC(=O)[C@H](Cc1ccc(O)cc1)NC(=O)CN1CCN(CCNC(=O)CN(C)C(=O)CN(C)C(=O)CN(C)C(=O)CN(C)C(=O)CN(C)C(=O)CN(C)C(=O)CN(C)C(=O)CN(C)C(=O)CN(C)C(=O)CC[C@H](NC(=O)CC[C@H](NC(=O)CC[C@H](NC(=O)CCCCCCCCCCCCCCCCCCC(=O)O)C(=O)O)C(=O)O)C(=O)O)CC1)C(=O)N[C@@H](CCCNC(=N)N)C(=O)N(C)[C@@H](C)C(=O)N[C@@H](CCCNC(=N)N)C(=O)NCC(N)=O [Compound 62, C20DA-gGlu3-Sar9-AEPipAc-Tyr-Phe-NMeLeu-Nle-Arg-NMeAla-Arg-Gly-NH2] (HELM PEPTIDE1{[O=C(O)CCCCCCCCCCCCCCCCCCC(=O)[*:2]].[gGlu].[gGlu].[gGlu].[Sar].[Sar].[Sar].[Sar].[Sar].[Sar].[Sar].[Sar].[Sar].[O=C(CN1CCN(CCN[*:1])CC1)[*:2]].Y.F.[meL].[Nle].R.[meA].R.G.[am]}$$$$V2.0) | 14.2 | 440 | 3.1
CCCC[C@H](NC(=O)[C@H](CC(C)C)N(C)C(=O)[C@H](Cc1ccccc1)NC(=O)[C@H](Cc1ccc(O)cc1)NC(=O)CN1CCN(CCNC(=O)CN(C)C(=O)CN(C)C(=O)CN(C)C(=O)CN(C)C(=O)CN(C)C(=O)CN(C)C(=O)CC[C@H](NC(=O)CC[C@H](NC(=O)CCCCCCCCCCCCCCCCC(=O)O)C(=O)O)C(=O)O)CC1)C(=O)N[C@@H](CCCNC(=N)N)C(=O)N1CCC[C@H]1C(=O)N[C@@H](CCCNC(=N)N)C(=O)NCC(N)=O [Compound 71, C18DA-gGlu2-Sar6-AEPipAc-Tyr-Phe-NMeLeu-Nle-Arg-Pro-Arg-Gly-NH2] (HELM PEPTIDE1{[O=C(O)CCCCCCCCCCCCCCCCC(=O)[*:2]].[gGlu].[gGlu].[Sar].[Sar].[Sar].[Sar].[Sar].[Sar].[O=C(CN1CCN(CCN[*:1])CC1)[*:2]].Y.F.[meL].[Nle].R.P.R.G.[am]}$$$$V2.0) | 14.5 | 130 | 1.5
CCCC[C@H](NC(=O)[C@H](CC(C)C)N(C)C(=O)[C@H](Cc1ccccc1)NC(=O)[C@H](Cc1ccc(O)cc1)NC(=O)CN1CCN(CCNC(=O)CN(C)C(=O)CN(C)C(=O)CN(C)C(=O)CN(C)C(=O)CN(C)C(=O)CN(C)C(=O)CN(C)C(=O)CN(C)C(=O)CN(C)C(=O)CC[C@H](NC(=O)CC[C@H](NC(=O)CC[C@H](NC(=O)CCCCCCCCCCCCCCCCC(=O)O)C(=O)O)C(=O)O)C(=O)O)CC1)C(=O)N[C@@H](CCCNC(=N)N)C(=O)N(C)[C@@H](C)C(=O)N[C@@H](CCCNC(=N)N)C(=O)NCC(N)=O [Compound 73, C18DA-gGlu3-Sar9-AEPipAc-Tyr-Phe-NMeLeu-Nle-Arg-NMeAla-Arg-Gly-NH2] (HELM PEPTIDE1{[O=C(O)CCCCCCCCCCCCCCCCC(=O)[*:2]].[gGlu].[gGlu].[gGlu].[Sar].[Sar].[Sar].[Sar].[Sar].[Sar].[Sar].[Sar].[Sar].[O=C(CN1CCN(CCN[*:1])CC1)[*:2]].Y.F.[meL].[Nle].R.[meA].R.G.[am]}$$$$V2.0) | 15.6 | 540 | 1.9
CCCC[C@H](NC(=O)[C@H](CC(C)C)N(C)C(=O)[C@H](Cc1ccccc1)NC(=O)[C@H](Cc1ccc(O)cc1)NC(=O)CN1CCN(C(=O)CN(C)C(=O)CN(C)C(=O)CN(C)C(=O)CN(C)C(=O)CN(C)C(=O)CN(C)C(=O)CN(C)C(=O)CN(C)C(=O)CN(C)C(=O)CN(C)C(=O)CN(C)C(=O)CN(C)C(=O)CN(C)C(=O)CN(C)C(=O)CN(C)C(=O)CC[C@H](NC(=O)CC[C@H](NC(=O)CC[C@H](NC(=O)CCCCCCCCCCCCCCCCC(=O)O)C(=O)O)C(=O)O)C(=O)O)CC1)C(=O)N[C@@H](CCCNC(=N)N)C(=O)N1CCC[C@H]1C(=O)N[C@@H](CCCNC(=N)N)C(=O)NCC(N)=O [Compound 75, C18DA-gGlu3-Sar15-PipAc-Tyr-Phe-NMeLeu-Nle-Arg-Pro-Arg-Gly-NH2] (HELM PEPTIDE1{[O=C(O)CCCCCCCCCCCCCCCCC(=O)[*:2]].[gGlu].[gGlu].[gGlu].[Sar].[Sar].[Sar].[Sar].[Sar].[Sar].[Sar].[Sar].[Sar].[Sar].[Sar].[Sar].[Sar].[Sar].[Sar].[O=C(CN1CCN([*:1])CC1)[*:2]].Y.F.[meL].[Nle].R.P.R.G.[am]}$$$$V2.0) | 3.5 | 130 | 0.7
